The results in this text go back to US9981976B2, “Piperidine substituted pyrazolo[1,5-A]pyrimidine derivatives with inhibitory activity on the replication of the respiratory syncytial virus (RSV)” (priority 2014, dated 2018).

One series deals with HeLa cells. The series can be described thus: Cytotoxicity in HeLa cells, ATP content (ATPlite kit). The note with it: three days incubation, CC50 = 50% concentration for cytotoxicity. (ATP-based viability assays read luminescence as a measure of living cells.)
For a further series, the system named is rgRSV224 virus. Nature of the series: microbe, parasite or virus in culture. It is filed as cell-based, respiratory syncytial virus (RSV). The note with it: for EC50: human respiratory syncytial virus, HeLa, 72 h, read-out: RSV HELA pEC50, rgRSV224 virus (MOI=1), HeLa cells, GFP expression three days post-virus exposure (converted).

Each structure is given as a SMILES string.

Description for HeLa cells: Black 384-well clear-bottom microtiter plates (Corning, Amsterdam, The Netherlands) were filled via acoustic drop ejection using the echo liquid handler (Labcyte, Sunnyvale, Calif.). 200 nL of compound stock solutions (100% DMSO) were transferred to the assay plates. 9 serial 4-fold dilutions of compound were made, creating per quadrant the same compound concentration. The assay was initiated by adding 10 μL of culture medium to each well (RPMI medium without phenol red, 10% FBS-heat inactivated, 0.04% gentamycin (50 mg/mL). All addition steps are done by using a multidrop dispenser (Thermo Scientific, Erembodegem, Belgium). Next, rgRSV224 virus (MOI=1) diluted in culture medium was added to the plates. rgRSV224 virus is an engineered virus that includes an additional GFP gene (Hallak L K, Spillmann D, Collins P L, Peeples M E. Glycosaminoglycan sulfation requirements for respiratory syncytial virus infection; Journal of virology (2000), 74(22), 10508-13) and was in-licensed from the NIH (Bethesda, Md., USA). Finally, 20 μL of a HeLa cell suspension (3,000 cells/well) were plated. Medium, virus- and mock-infected controls were included in each test. The wells contain 0.05% DMSO per volume. Cells were incubated at 37° C. in a 5% CO2 atmosphere. Three days post-virus exposure, viral replication was quantified by measuring GFP expression in the cells by an in house developed MSM laser microscope (Tibotec, Beerse, Belgium). The EC50 was defined as the 50% inhibitory concentration for GFP expression. In parallel, compounds were incubated for three days in a set of white 384-well microtiter plates (Corning) and the cytotoxicity of compounds in HeLa cells was determined by measuring the ATP content of the cells using the ATPlite kit (Perkin Elmer, Zaventem, Belgium) according to the manufacturer's instructions. The CC50 was defined as the 50% concentration for cytotoxicity.

As to `Cc1cccc2nc(O)nc(N3CCCCC3c3cc4nc(N5CCC5)cc(N5CCOCC5)n4n3)c12` (centres unmarked) [P45, 4-(2-(5-(azetidin-1-yl)-7-morpholinopyrazolo[1,5-a]pyrimidin-2-yl)-piperidin-1-yl)-5-methylquinazolin-2-ol], the “SI TOX HELA” value in the series with HeLa cells is recorded as 4.2. The EC50 in the series on rgRSV224 virus was 200 nM.

As to `Cc1cccc2nc(C(=O)NS(=O)(=O)C3CC3)nc(N3CCCCC3c3cc4nc(N5CCC5)cc(N5CCOCC5)n4n3)c12` (centres unmarked) [P71, 4-(2-(5-(azetidin-1-yl)-7-morpholinopyrazolo[1,5-a]pyrimidin-2-yl)-piperidin-1-yl)-N-(cyclopropylsulfonyl)-5-methylquinazoline-2-carboxamide], in the series with HeLa cells, the “SI TOX HELA” value is recorded as under 4. Besides, the EC50 in the series on rgRSV224 virus is 398 nM.

In the case of `Cc1cccc2nc(-c3cnoc3)nc(N3CCCCC3c3cc4nc(N5CCC5)cc(N5CCOCC5)n4n3)c12` (centres unmarked) [P72, 4-(5-(azetidin-1-yl)-2-(1-(2-(isoxazol-4-yl)-5-methylquinazolin-4-yl)-piperidin-2-yl)pyrazolo[1,5-a]pyrimidin-7-yl)morpholine], the “SI TOX HELA” value with HeLa cells was 4.5. In the series on rgRSV224 virus, the EC50 was 25.1 nM.

For the compound `Cc1ccc2nc(C)nc(N3CCCC[C@H]3c3cc4nc(N5CC(O)C5)c(C)cn4n3)c2c1` [P43, (S)-1-(2-(1-(2,6-dimethylquinazolin-4-yl)piperidin-2-yl)-6-methyl-pyrazolo[1,5-a]pyrimidin-5-yl)azetidin-3-ol], the “SI TOX HELA” value with HeLa cells turned out to be 4.2. Moreover, the EC50 in the series with rgRSV224 virus is 15800 nM.

Turning to `FC(F)(F)c1cccc2ncnc(N3CCCCC3c3cc4nc(N5CCC5)cc(N5CCOCC5)n4n3)c12` (centres unmarked) [P62, 4-(5-(azetidin-1-yl)-2-(1-(5-(trifluoromethyl)quinazolin-4-yl)piperidin-2-yl)pyrazolo[1,5-a]pyrimidin-7-yl)morpholine], the “SI TOX HELA” value in the series with HeLa cells is given as 4.3. Besides, the EC50 with rgRSV224 virus was 100 nM.

As to `Cc1cccc2nc(C(=N)NO)nc(N3CCCCC3c3cc4nc(N5CCC5)cc(N5CCOCC5)n4n3)c12` (centres unmarked) [P30, 4-(2-(5-(azetidin-1-yl)-7-morpholinopyrazolo[1,5-a]pyrimidin-2-yl)-piperidin-1-yl)-N-hydroxy-5-methylquinazoline-2-carboximidamide], the “SI TOX HELA” value with HeLa cells came to 4.6. The EC50 with rgRSV224 virus was 631 nM.

Take `Cc1ccc2nc(C)nc(N3CCCC[C@@H]3c3cc4nc(N5CC(O)C5)c(C)cn4n3)c2c1` [P44, (R)-1-(2-(1-(2,6-dimethyl-quinazolin-4-yl)piperidin-2-yl)-6-methylpyrazolo[1,5-a]pyrimidin-5-yl)azetidin-3-ol]: the “SI TOX HELA” value in the series with HeLa cells was determined as 4.2. For the same compound, the EC50 in the series with rgRSV224 virus was 794 nM.

As for `Cc1cccc2ncnc(N3CCCCC3c3cc4nc(N5CCC5)cc(N5CCN(C(=O)NC(C)C)CC5)n4n3)c12` (centres unmarked) [P54, 4-(5-(azetidin-1-yl)-2-(1-(5-methylquinazolin-4-yl)piperidin-2-yl)-pyrazolo[1,5-a]pyrimidin-7-yl)-N-isopropylpiperazine-1-carboxamide], the “SI TOX HELA” value with HeLa cells worked out at 4.5. In addition, the EC50 with rgRSV224 virus was 25.1 nM.

Turning to `Cc1cn2nc(C3CCCCN3c3ncnc4cccc(C)c34)cc2nc1N1CC[C@@H](N)C1` (stereo in doubt) [P48, (3 S)-1-(6-methyl-2-(1-(5-methylquinazolin-4-yl)piperidin-2-yl)-pyrazolo[1,5-a]pyrimidin-5-yl)pyrrolidin-3-amine], the “SI TOX HELA” value in the series with HeLa cells worked out at 4.5. The EC50 with rgRSV224 virus was 12.6 nM.

For the compound `Clc1cccc2ncnc(N3CCCCC3c3cc4nc(N5CCC5)cc(N5CCOCC5)n4n3)c12` (centres unmarked) [P35, 4-(5-(azetidin-1-yl)-2-(1-(5-chloroquinazolin-4-yl)piperidin-2-yl)-pyrazolo[1,5-a]pyrimidin-7-yl)morpholine], the “SI TOX HELA” value in the series on HeLa cells is given as 4.4. Also, the EC50 in the series with rgRSV224 virus was 63.1 nM.

For `Cc1cccc2ncnc(N3CCCC[C@@H]3c3cc4nc(N5CCC5)cc(N5CCOCC5)n4n3)c12` [P18, (R)-4-(5-(azetidin-1-yl)-2-(1-(5-methylquinazolin-4-yl)piperidin-2-yl)-pyrazolo[1,5-a]pyrimidin-7-yl)morpholine], in the series on HeLa cells, the “SI TOX HELA” value is under 4.3. Further, the EC50 in the series with rgRSV224 virus is over 1000 nM.

On to `Cc1nc2c(N3CCCCC3c3cc4nc(N5CCC5)cc(N5CCOCC5)n4n3)ncnc2o1` (centres unmarked) [P65, 7-(2-(5-(azetidin-1-yl)-7-morpholinopyrazolo[1,5-a]pyrimidin-2-yl)-piperidin-1-yl)-2-methyloxazolo[5,4-d]pyrimidine], for which, in the series with HeLa cells, the “SI TOX HELA” value is under 4.6. Moreover, the EC50 in the series on rgRSV224 virus was 15.8 nM.

Take `Cc1ccc2ncnc(N3CCCC[C@H]3c3cc4nc(N5CCC(N)C5)ccn4n3)c2c1` (stereo in doubt) [P51, (S)-1-(2-((S)-1-(6-methylquinazolin-4-yl)piperidin-2-yl)pyrazolo-[1,5-a]pyrimidin-5-yl)pyrrolidin-3-amine]: in the series with HeLa cells, the “SI TOX HELA” value amounted to 4.3. In the series with rgRSV224 virus, the EC50 is 316 nM.

As to `Cc1ccc2ncnc(N3CCCCC3c3cc4nc(N5CCC5)cc(N5CCOCC5)n4n3)c2c1C` (centres unmarked) [P64, 4-(5-(azetidin-1-yl)-2-(1-(5,6-dimethylquinazolin-4-yl)piperidin-2-yl)-pyrazolo[1,5-a]pyrimidin-7-yl)morpholine], the “SI TOX HELA” value in the series with HeLa cells is under 4.6. Further, in the series with rgRSV224 virus, the EC50 was 15.8 nM.

In the case of `COC(=O)Nc1nc(N2CCCCC2c2cc3nc(N4CCC4)cc(N4CCOCC4)n3n2)c2c(C)cccc2n1` (centres unmarked) [P29, methyl (4-(2-(5-(azetidin-1-yl)-7-morpholinopyrazolo[1,5-a]-pyrimidin-2-yl)piperidin-1-yl)-5-methylquinazolin-2-yl)carbamate], the “SI TOX HELA” value in the series on HeLa cells came out at 4.5. For the same compound, in the series on rgRSV224 virus, the EC50 was 398 nM.

On to `Cc1ccc2nc(Cl)nc(N3CCCCC3c3cc4nc(N5CCC5)cc(N5CCOCC5)n4n3)c2c1` (centres unmarked) [P5, 4-(5-(azetidin-1-yl)-2-(1-(2-chloro-6-methylquinazolin-4-yl)piperidin-2-yl)pyrazolo[1,5-a]pyrimidin-7-yl)morpholine], for which the “SI TOX HELA” value with HeLa cells was under 5. Further, the EC50 with rgRSV224 virus was 251 nM.

Turning to `CS(=O)(=O)Nc1nc(N2CCCC[C@H]2c2cc3nc(N4CCC4)cc(N4CCOCC4)n3n2)c2cc(Cl)ccc2n1` (stereo in doubt) [P32, N-(4-(2-(5-(azetidin-1-yl)-7-morpholinopyrazolo[1,5-a]pyrimidin-2-yl)piperidin-1-yl)-6-chloroquinazolin-2-yl)methanesulfonamide], the “SI TOX HELA” value in the series on HeLa cells was under 4. In addition, the “RSV HELA pEC50” value in the series on rgRSV224 virus (rgRSV224 virus (MOI=1), HeLa cells, GFP expression three days post-virus exposure) came to 7.3.

Take `Cc1cn2nc(C3CCCCN3c3nc(Cl)nc4cccc(C)c34)cc2nc1N1CC(O)C1` (centres unmarked) [P40, 1-(2-(1-(2-chloro-5-methylquinazolin-4-yl)piperidin-2-yl)-6-methylpyrazolo[1,5-a]pyrimidin-5-yl)azetidin-3-ol]: the “SI TOX HELA” value in the series on HeLa cells worked out at 4.7. Besides, the EC50 with rgRSV224 virus was 158 nM.

As to `CCOc1nc(N2CCCCC2c2cc3nc(N4CCC4)cc(N4CCOCC4)n3n2)c2cccnc2n1` (centres unmarked) [P16, 4-(5-(azetidin-1-yl)-2-(1-(2-ethoxypyrido[2,3-d]pyrimidin-4-yl)-piperidin-2-yl)pyrazolo[1,5-a]pyrimidin-7-yl)morpholine], the “SI TOX HELA” value with HeLa cells was 4.3. In addition, the EC50 in the series with rgRSV224 virus was 79.4 nM.

`CN(C)S(=O)(=O)NC(=O)c1nc(N2CCCCC2c2cc3nc(N4CCC4)cc(N4CCOCC4)n3n2)c2ccccc2n1` (centres unmarked) [P36, 4-(2-(5-(azetidin-1-yl)-7-morpholinopyrazolo[1,5-a]pyrimidin-2-yl)-piperidin-1-yl)-N—(N,N-dimethylsulfamoyl)quinazoline-2-carboxamide]: in the series on HeLa cells, the “SI TOX HELA” value is reported as under 4. Further, the EC50 in the series with rgRSV224 virus was 501 nM.

As for `CS(=O)(=O)Nc1nc(N2CCCCC2c2cc3nc(N4CCC4)cc(N4CCOCC4)n3n2)c2ccccc2n1` (centres unmarked) [P10, N-(4-(2-(5-(azetidin-1-yl)-7-morpholinopyrazolo[1,5-a]pyrimidin-2-yl)piperidin-1-yl)quinazolin-2-yl)methanesulfonamide], the “SI TOX HELA” value with HeLa cells is reported as under 4.3. In the series with rgRSV224 virus, the EC50 was 631 nM.

As for `Cc1cccc2nc(C(N)=O)nc(N3CCCCC3c3cc4nc(N5CCC5)cc(N5CCOCC5)n4n3)c12` (centres unmarked) [P46, 4-(2-(5-(azetidin-1-yl)-7-morpholinopyrazolo[1,5-a]pyrimidin-2-yl)-piperidin-1-yl)-5-methylquinazoline-2-carboxamide], in the series with HeLa cells, the “SI TOX HELA” value is listed as 4.3. In the series on rgRSV224 virus, the EC50 was 316 nM.

With `Fc1cccc2ncnc(N3CCCCC3c3cc4nc(N5CCC5)cc(N5CCOCC5)n4n3)c12` (centres unmarked) [P60, 4-(5-(azetidin-1-yl)-2-(1-(5-fluoroquinazolin-4-yl)piperidin-2-yl)-pyrazolo[1,5-a]pyrimidin-7-yl)morpholine], the “SI TOX HELA” value with HeLa cells is on record as 4.3. In the series with rgRSV224 virus, the EC50 was 126 nM.

Consider `Clc1ccc2ncnc(N3CCCC[C@@H]3c3cc4nc(N5CCC5)cc(N5CCOCC5)n4n3)c2c1` [P3, (R)-4-(5-(azetidin-1-yl)-2-(1-(6-chloroquinazolin-4-yl)piperidin-2-yl)pyrazolo[1,5-a]pyrimidin-7-yl)morpholine], for which, in the series on HeLa cells, the “SI TOX HELA” value turned out to be 4.6. Moreover, the EC50 in the series on rgRSV224 virus was 3980 nM.

As to `Cc1ccc2ncnc(N3CCCCC3c3cc4nc(N5CCC5)cc(N5CCOCC5)n4n3)c2c1` (centres unmarked) [P4, 4-(5-(azetidin-1-yl)-2-(1-(6-methylquinazolin-4-yl)piperidin-2-yl)-pyrazolo[1,5-a]pyrimidin-7-yl)morpholine], the “SI TOX HELA” value with HeLa cells is under 4. Also, the EC50 with rgRSV224 virus is 158 nM.

For the compound `COc1cccc2ncnc(N3CCCCC3c3cc4nc(N5CCC5)cc(N5CCOCC5)n4n3)c12` (centres unmarked) [P74, 4-(5-(azetidin-1-yl)-2-(1-(5-methoxyquinazolin-4-yl)piperidin-2-yl)-pyrazolo[1,5-a]pyrimidin-7-yl)morpholine], the “SI TOX HELA” value in the series on HeLa cells was under 4.6. The EC50 in the series with rgRSV224 virus is 15.8 nM.

Take `Cc1ccc(C)c2c(N3CCCCC3c3cc4nc(N5CCC5)cc(N5CCOCC5)n4n3)ncnc12` (centres unmarked) [P66, 4-(5-(azetidin-1-yl)-2-(1-(5,8-dimethylquinazolin-4-yl)piperidin-2-yl)-pyrazolo[1,5-a]pyrimidin-7-yl)morpholine]: the EC50 with rgRSV224 virus is 100 nM.
